From EP0393640B1, “A monoclonal antibody recognizing C-terminus of ANP” (SHIONOGI SEIYAKU KABUSHIKI KAISHA trading under the name of …, priority 1989, dated 1990)
Ends that are not written are not given here.

Tests used:
Type in all cases: binding, mouse
AN111 = assay: Cross-reactivity of ANP-related polypeptides in the α-hANP radioimmunoassay with AN111; settings: ascitic fluid AN111A
Description: (§1) Using peptide and peptide fragment relating to α-hANP as a sample in α-hANP radioimmunoassay to be described in Example 5, cross reactivity was measured. It was confirmed that both of AN111 and AN117 recognize the C-terminus of α-hANP. Table 1 Assay buffer solution : 0.1 M phosphate buffer solution (pH 7.0) containing 0.372 g of disodium ethylenediamine tetraacetate, 0.063 g of cystine dihydrochloride, 0.262 g of ε-aminocaproic acid, 0.1g of sodium azide and 1 g of bovine serum albumin per liter. Dilute ascitic fluid : A[…] 110,000-fold diluted with Assay buffer solution or A[…] 62,000-fold diluted with Assay buffer solution. α-hANP standard : α-hANP serially two-fold diluted at a range of concentrations from 3.13 ng/ml to 100 ng/ml. 125 I -labelled α-hANP : 125I-labelled α-hANP (Amersham) diluted with Assay buffer solution up to approximately 3.7 KBq/ml. 1 % Bovine gamma globulin : dissolved in Assay buffer solution 37.5 % Polyethylene glycol : polyethylene glycol 6000 dissolved in Assay buffer solution without bovine serum albumin To a tube charged with 100 »l of α-hANP standard or a sample, 100 »l of 125I-labelled α-hANP, 100 »l of dilute ascitic fluid and 200 »l of 1 % bovine gamma globulin were added and the mixture was incubated overnight at 4 °C. […] After removing the supernatant, the radioactivity of the precipitate is measured by a gamma counter (Aloka, ARC-600 type)

[1] = tested on: AN111 as an immobilized antibody, ¹²⁵I-labelled KY-ANP-I; assay: Cross-reactivity of ANP-related peptides in the sandwich radioimmunoassay (one-step); settings: one-step assay, AN111 immobilized on beads
Text: Anti-α-ANP [17-28] monoclonal antibody produced by the above hybridoma clone AN111 or AN117 (the antibody is hereinafter referred to as AN111 or AN117) which was immobilized on beads was used as an immobilized antibody. As a labelled antibody, anti-α-hANP [1 -28] monoclonal antibody produced by hybridoma clone KY-ANP-I (ECACC 87082001, EP-A-0 306 309) (the antibody is hereinafter referred to as KY-ANP-I) which was labelled with 125I was used. By the above antibodies, a sandwich radioimmunoassay of α-hANP was established. In 0.05 M phosphate buffer (pH 7.4) containing the IgG fraction (100 »g/ml) of A[…] or A[…] prepared in Item 1 above are immersed polystyrene beads (Ichico, 3.2 mm diameter) and allowed to stand at 4 °C for 20 hr. […] Radioactivity of 125 I -labelled antibody bound to the solid phase was measured by a gamma counter. A standard curve was prepared by plotting a concentration of α-hANP standard at abscissa and the measured radioactivity at ordinate. An ANP concentration in plasma was calculated by applying the radioactivity from the plasma sample to the standard curve. […]

AN117 = assay: Cross-reactivity of ANP-related polypeptides in the α-hANP radioimmunoassay with AN117; settings: ascitic fluid AN117A
Description: as §1

β-hANP: antiparallel dimer of α-hANP (SLRRSSCFGGRMDRIGAQSGLGCNSFRY; ends and bridges not checked; also: antiparallel dimer of α-hANP; UniProt P01160 124-151, looked up)
Cross-reactivity (%) AN111 (AN111): 142%
Cross-Reactivity (Molar %) [1]: 100 Molar %
Cross-reactivity (%) AN117 (AN117): 136%
